Laboratory results as given in patent US5959109A, “Compounds and methods for increasing endogenous levels of corticotropin-releasing factor” (Neurocrine Biosciences, Inc., priority 1996, dated 1999).
Ends that are not written are not given here.

Legend:
CRF/CRF-BP complexes = experiment: ELISA of CRF/CRF-BP complex in NP-40 solubilized cerebrocortical brain tissue (FIG. 3); assay type: binding, human; details: post-mortem controls and Alzheimer's disease patients
Method: FIG. 3 is a graph displaying the results of ELISAs testing the ability of a representative ligand inhibitor, Compound No. 35, to displace endogenous CRF from CRF-BP in brain tissue from Alzheimer's disease patients and normal controls.
Another ligand inhibitor, Compound No. 35, was tested for its ability to inhibit CRF/CRF-BP complexes in NP-40 solubilized human cerebrocortical brain tissue obtained postmortem from controls and Alzheimer disease patients. Briefly, 0.1-0.5 g of brain tissue was homogenized in phosphate-buffered saline containing 0.2% NP-40. The homogenate was clarified by centrifugation at 3000×g for 10 minutes. Supernatants were assayed by ELISA for the formation of CRF/CRF-BP complex in the presence or absence of Compound No. 35.

human recombinant CRF-BP = target: T1, human recombinant CRF-BP (Homo sapiens, UniProt P24387); experiment: LIRMA: displacement of 125I-h/rCRF from CRF-BP, Ki; assay type: binding; details: inhibitory binding affinity constant (Ki)
T1 construct: made in house
T1 sequence (P24387 25-322): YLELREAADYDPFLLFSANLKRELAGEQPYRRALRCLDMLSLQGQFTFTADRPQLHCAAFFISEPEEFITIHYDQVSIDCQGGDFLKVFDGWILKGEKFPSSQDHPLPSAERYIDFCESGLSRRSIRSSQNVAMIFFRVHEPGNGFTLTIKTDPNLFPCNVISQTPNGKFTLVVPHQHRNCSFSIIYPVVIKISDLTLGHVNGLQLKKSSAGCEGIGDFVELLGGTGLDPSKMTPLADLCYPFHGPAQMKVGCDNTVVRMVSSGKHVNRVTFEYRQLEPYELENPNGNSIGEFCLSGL
Method: In LIRMA CRF-BP isolated from brain tissue, serum, or cells expressing a recombinant form, is added to wells of a 96-well plate, to small polypropylene microfuge tubes, or to glass borosilicate tubes in a binding buffer (0.02% NP-40 in 50 mM phosphate-buffered saline). ^125 I-h/rCRF (New England Nuclear) and the candidate ligand inhibitor at 10 μM are added and the reaction is incubated for 1 hour at room temperature. An appropriately diluted anti-CRF-BP antibody, such as a rabbit anti-hCRF-BP (Potter et al., Proc. Natl. Acad. Sci. USA 89:4192-4196, 1992) is added to each tube, and after further incubation, bound complexes are precipitated by the further addition of a goat anti-rabbit antibody. The precipitate containing ^125 I-CRF is collected by centrifugation and the amount of radioactivity in the pellet is determined by a gamma counter. If the candidate ligand inhibitor displaces CRF from CRF-BP, the pellets will contain less radioactivity in comparison to controls in which no candidate peptide is added. Maximum inhibition (i.e., 100%) of the binding of ^125 I-h/rCRF to the CRF-BP is defined by the amount of radioactivity left in the pellets after incubation with 10 μM of the CRF-BP peptide ligand h/rCRF (6-33). Thus, the binding potency of the candidate ligand inhibitor will be measured relative to the potency of the standard h/rCRF (6-33).
Thus, a ligand having a Ki of less than that of hCRF will bind more strongly to hCRF-BP than will hCRF itself, and a ligand having a higher value will have a relatively lower binding affinity.
The assay is performed in 600 μl polypropylene microfuge tubes or a 96-well plate. First, 50 μl of a 250 ng/ml of purified recombinant CRF-BP is added to 150 μl of PBS binding buffer (50 mM sodium phosphate, 0.15M NaCl, and 0.02% NP-40). Next, ^125 I-h/r CRF at a final concentration of 200 pM and 50 μl of a 10-100 μM concentration of the ligand inhibitor are added and incubated for 1 hour at room temperature. To the reaction, 50 μl of anti-CRF-BP antibody, 5144, diluted 1:1000 with assay buffer is added to each tube and allowed to bind for a further 1 hour at room temperature. The total volume in all tubes is adjusted to 300 μl with assay buffer. Bound complexes are precipitated by the addition of 200 μl of preprecipitated goat anti-rabbit (GAR) second antibody at 1:20 in 1% normal rabbit serum, 4% PEG, 50 mM sodium phosphate, 0.1% sodium azide, followed by incubation for 1 hour at room temperature. The antibody-bound ^125 I-CRF precipitate is then collected by centrifugation (3000×g) at 4° C. for 20 minutes in a Beckman GS-15R centrifuge. Using a Beckman Biomer 1000 robotic workstation, the tubes are aspirated and washed once with 600 μl of PBS plus 0.02% NP-40. Tubes containing the pellets are then transferred to 12×74 mm counting tubes and counted in a gamma counter.
Inhibitory binding affinity constant (Ki) values are determined using the method of Munson et al., Anal. Biochem. 107:220, 1980.

[1] = Automated passive avoidance learning; assay type: in vivo, rat; details: oral, 5 minutes after training period; FIGS. 5A, 5B
Method: FIGS. 5A and 5B are graphs depicting the effect of administration of representative ligand inhibitors of this invention, Compound Nos. 97-1 and 153, respectively. The ligand inhibitors were administered 5 minutes post-training period in the passive avoidance test.
The apparatus for both rats and mice is the same as used in active avoidance testing (see Example 14).
For the training trial, the animal is placed individually in one compartment of the learning apparatus, which is separated from a second compartment by a guillotine door. Following a three minute habituation period, the door is opened and the latency to enter the second compartment is recorded. When the animal enters with all four paws, the door is closed, and a 0.5 second AC footshock (Coulburn precision shocker) is delivered. After five seconds, the subject is removed and placed in its home cage. At the time of testing (usually 1-7 days later), the animal is returned to the compartment in which it was initially placed for the learning trial, the door is opened and the latency to enter the second compartment is recorded, but the animal is not shocked. […]
For most strains of rats with weights between 150 and 350 grams, an effective footshock intensity ranges from 0.2-1.0 mA. […] The latency time of rats to enter the dark compartment is measured. […]

CRF receptors = details: rat, in vivo; cited from earlier work
[2] = tested on: CRF receptors (rat anterior pituitary cells); experiment: ACTH secretion from rat anterior pituitary cells (CRF agonist/antagonist activity); assay type: cell-based; details: for CRF agonist activity relative to standard oCRF: oCRF arbitrarily 1.0
Method: Candidate ligand inhibitors may be screened for their ability to displace CRF from the CRF/CRF-BP complex by biological assay or by in vitro assay. One suitable biological assay is the measurement of ACTH release from cultured pituitary cells. This assay is performed in the following manner. Anterior pituitary glands from rats are washed six times with sterile HEPES buffer and transferred to a solution containing collagenase. After subsequent transfer to a 25 ml Bellco dispersion flask, the pituitaries are stirred for 30 minutes at 37° C., triturated, incubated for a further 30 minutes, and again triturated. The partially dispersed cells are then collected by centrifugation. The cell pellet is resuspended in 10 ml of neuraminidase and again collected by centrifugation. The pellet is reconstituted in 25 ml of BBM-P (BBM (Irvine Scientific) plus 100 μg/L, cortisol, 1 μg/L insulin, 0.1 μg/L EGF2, 0.4 μg/L T3, 0.7 μg/L PTH, 10 μg/L glucagon, and 2% fetal bovine serum), centrifuged again, and the resultant pellet is finally reconstituted in BBM-P. The cells are then plated at a density of 50,000-100,000/well in a 48 well plate and incubated for 2 days. On the day of assay the cells are washed once with BBM-T in preparation for stimulation with the peptide candidates or CRF. Cells are stimulated with a maximally stimulating dose of h/rCRF (1 nM) and ACTH release is measured by RIA or immunoradiometric assay. When a blocking concentration of CRF-BP is added, the amount of ACTH that is released is reduced and expressed as a fraction of the maximal release. The ligand inhibitor is added at various doses. The potency of the peptide in displacing CRF from CRF-BP is measured by the amount of ACTH release expressed as a fraction of the maximal release caused by CRF given alone.
An additional assay using rat anterior pituitary cells to measure ACTH secretion can be carried out to determine whether a ligand inhibitor functions as a CRF agonist of hCRF receptors. […] Antagonistic action may be determined by performing the assay in the presence of a challenge dose of CRF. […]

[3] = cited from earlier work
human CRF-BP = details: cited from earlier work

## O=c1oc2ccc(Cl)cc2c(O)c1C=Nc1nc2ccccc2s1 [Compound 35]
CRF/CRF-BP complexes
  inhibition of formation of CRF/CRF-BP complexes in brain tissue: inhibits formation of CRF/CRF-BP complexes in brains of controls and Alzheimer's disease patients

## O=c1c(C=Nc2nc3ccccc3[nH]2)c(O)n(CCCc2ccccc2)c(=S)n1CCCc1ccccc1 [Compound 97-1]
Human recombinant CRF-BP
  Ki: < 0.05 µM
[1]
  latency time to entering the dark compartment: increase in medium latency time

## CN1[C@@H]2CC[C@H]1C[C@@H](OC(=O)C(CO)c1ccccc1)C2 (stereo partly shown) [atropine]
CRF receptors
  CRF receptors after treatment: increase in CRF receptors

## hCRF (6-33): CRF-BP peptide ligand h/rCRF (6-33) (ISLDLTFHLLREVLEMARAEQLAQQAHS; Corticoliberin; UniProt P06850 159-186, looked up, fragment)
[2]
  CRF antagonist activity: does not exhibit substantial CRF antagonist activity
  CRF agonist activity relative to standard oCRF: less than 0.1%

## hCRF (9-33): The peptide hCRF (9-33) (DLTFHLLREVLEMARAEQLAQQAHS; Corticoliberin; UniProt P06850 162-186, looked up, fragment)
[2]
  CRF agonist activity relative to standard oCRF: less than 0.01%

## urocortin: the human neuropeptide urocortin (DNPSLSIDLTFHLLRTLLELARTQSQRERAEQNRIIFDSV; ends and bridges not checked; UniProt P55089 83-122, looked up)
[3]; animals
  feeding behavior: significantly suppress feeding behavior in animals
[3]; in vivo
  blood pressure: lowering blood pressure
Human CRF-BP
  affinity for CRF-BP: high affinity
